Assay results from PubChem BioAssay AID258 (DTP/NCI, 2004).
“And” between values parts separate entries of the source, which are not always exact repeats. Equal values may be shown once. Inconclusive results and toxic doses are left out.

Test system: CD2F1 mice, L1210 leukemia sc, survival T/C
Experiment: NCI In Vivo Anticancer Drug Screen. Data for tumor model L1210 Leukemia (subcutaneous) in CD2F1 (CDF1) mice
Conditions: endpoint: median survival time, higher = longer survival
Outline: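 T/C ratio: treated-group survival or tumor size over vehicle-control group measurement, in mice carrying transplanted tumors.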

[1] = dose: 8.4 mg/kg/injection, schedule: Q01DX Z (sc), vehicle: methylcellulose (MC)
[2] = dose: 14.0 mg/kg/injection, schedule: Q01DX Z (sc), vehicle: methylcellulose (MC)
[3] = dose: 23.0 mg/kg/injection, schedule: Q01DX Z (sc), vehicle: methylcellulose (MC)
[4] = dose: 39.0 mg/kg/injection, schedule: Q01DX Z (sc), vehicle: methylcellulose (MC)
[5] = dose: 65.0 mg/kg/injection, schedule: Q01DX Z (sc), vehicle: methylcellulose (MC)
[6] = dose: 108.0 mg/kg/injection, schedule: Q01DX Z (sc), vehicle: methylcellulose (MC)
[7] = dose: 39.0 mg/kg/injection, schedule: Q01DX Z (sc), vehicle: water
[8] = dose: 65.0 mg/kg/injection, schedule: Q01DX Z (sc), vehicle: water
[9] = dose: 108.0 mg/kg/injection, schedule: Q01DX Z (sc), vehicle: water
[10] = dose: 180.0 mg/kg/injection, schedule: Q01DX Z (sc), vehicle: water
[11] = dose: 300.0 mg/kg/injection, schedule: Q01DX Z (sc), vehicle: water

In the case of `O=C(O)c1[nH]c(=O)[nH]c(=O)c1F`, the T/C (dose: 3.0 mg/kg/injection, schedule: Q01DX Z (sc), vehicle: saline) is reported as 111 % of control, the T/C (dose: 8.4 mg/kg/injection, schedule: Q01DX Z (sc), vehicle: saline) is reported as 177 % of control and the T/C (dose: 14.0 mg/kg/injection, schedule: Q01DX Z (sc), vehicle: saline) is reported as 155 % of control. The T/C (dose: 23.0 mg/kg/injection, schedule: Q01DX Z (sc), vehicle: saline) was 166 % of control and the T/C (dose: 39.0 mg/kg/injection, schedule: Q01DX Z (sc), vehicle: saline) was 155 % of control.
With `c1ccc(CNc2ncnc3[nH]ncc23)cc1` the T/C [1] was 105 % of control, the T/C [2] was 100 % of control and the T/C [3] was 100 % of control. For the same molecule, the T/C [4] was 100 % of control, the T/C [5] was 111 % of control and the T/C [6] was 122 % of control.
For `CS(=O)(=O)OCCCCOS(C)(=O)=O`, the T/C [1] was 100 % of control, the T/C [2] was 100 % of control and the T/C [3] was 100 % of control. For the same molecule, the T/C [4] was 100 % of control, the T/C [5] was 100 % of control and the T/C [6] was 100 % of control.
In the case of `COCCCNc1ncnc2[nH]ncc12`, the T/C (dose: 23.0 mg/kg/injection, schedule: Q01DX Z (sc), vehicle: water) is reported as 100 % of control, the T/C [7] is reported as 100 % of control and the T/C [8] is reported as 100 % of control. The T/C [9] was 100 % of control, the T/C [10] was 109 % of control and the T/C [11] was 109 % of control.
For `Clc1ccc(CNc2ncnc3[nH]ncc23)cc1Cl`, the T/C [1] was 95 % of control, the T/C [2] was 95 % of control and the T/C [3] was 95 % of control. For the same molecule, the T/C [4] was 100 % of control, the T/C [5] was 104 % of control and the T/C [6] was 114 % of control. The T/C (dose: 180.0 mg/kg/injection, schedule: Q01DX Z (sc), vehicle: methylcellulose (MC)) was 104 % of control.
With `COc1cccc2c1C(=O)c1c(O)c3c(c(O)c1C2=O)CC(O)(C(=O)CO)CC3OC1CC(N)C(O)C(C)O1` (centres undefined) the T/C (dose: 2.9 mg/kg/injection, schedule: Q01DX009 (ip), vehicle: saline) was 104 % of control, the T/C (dose: 5.8 mg/kg/injection, schedule: Q01DX009 (ip), vehicle: saline) was 105 % of control and the T/C (dose: 11.7 mg/kg/injection, schedule: Q01DX009 (ip), vehicle: saline) was 106 % of control. For the same molecule, the T/C (dose: 23.4 mg/kg/injection, schedule: Q01DX009 (ip), vehicle: saline) was 115 % of control and the T/C (dose: 46.8 mg/kg/injection, schedule: Q01DX009 (ip), vehicle: saline) was 111 % of control.
`S=c1nc[nH]c2nc[nH]c12.[Ag]` was tested, and the T/C (dose: 100.0 mg/kg/injection, schedule: Q01DX Z (sc), vehicle: water) was 100 % of control, the T/C (dose: 200.0 mg/kg/injection, schedule: Q01DX Z (sc), vehicle: water) was 100 % of control and the T/C (dose: 400.0 mg/kg/injection, schedule: Q01DX Z (sc), vehicle: water) was 100 % of control. For the same molecule, the T/C (dose: 800.0 mg/kg/injection, schedule: Q01DX Z (sc), vehicle: water) was 100 % of control and the T/C (dose: 1600.0 mg/kg/injection, schedule: Q01DX Z (sc), vehicle: water) was 100 % of control.
In the case of `N#Cc1c(-c2ccc(F)cc2)c(-c2ccc(F)cc2)nn(CCO)c1=O`, the T/C (dose: 108.0 mg/kg/injection, schedule: Q01DX005 (ip), vehicle: distilled water + Tween-80 + alcohol) is reported as 109 % of control, the T/C (dose: 180.0 mg/kg/injection, schedule: Q01DX005 (ip), vehicle: distilled water + Tween-80 + alcohol) is reported as 113 % of control and the T/C (dose: 300.0 mg/kg/injection, schedule: Q01DX005 (ip), vehicle: distilled water + Tween-80 + alcohol) is reported as 113 % of control. The T/C (dose: 833.0 mg/kg/injection, schedule: Q01DX005 (ip), vehicle: distilled water + Tween-80 + alcohol) was 178 % of control.
For `NCCCNCCCCNC(=O)C(O)NC(=O)CCCCCCN=C(N)N` (centres undefined), the T/C (dose: 0.75 mg/kg/injection, schedule: Q01DX009 (ip), vehicle: saline) was 156 % of control, the T/C (dose: 1.5 mg/kg/injection, schedule: Q01DX009 (ip), vehicle: saline) was 172 % of control and the T/C (dose: 1.56 mg/kg/injection, schedule: Q01DX009 (ip), vehicle: saline) was 162 % of control and 183 % of control. The T/C (dose: 3.0 mg/kg/injection, schedule: Q01DX009 (ip), vehicle: saline) was 192 % of control, the T/C (dose: 3.12 mg/kg/injection, schedule: Q01DX009 (ip), vehicle: saline) was 198 % of control and 203 % of control and the T/C (dose: 4.0 mg/kg/injection, schedule: Q01DX001 (ip), vehicle: saline) was 107 % of control. The T/C (dose: 4.0 mg/kg/injection, schedule: Q03HX008 (ip), vehicle: saline) was 121 % of control, the T/C (dose: 6.0 mg/kg/injection, schedule: Q01DX009 (ip), vehicle: saline) was 237 % of control and the T/C (dose: 6.25 mg/kg/injection, schedule: Q01DX009 (ip), vehicle: saline) was 207 % of control and 235 % of control. The T/C (dose: 8.0 mg/kg/injection, schedule: Q01DX001 (ip), vehicle: saline) was 103 % of control and 109 % of control, the T/C (dose: 12.0 mg/kg/injection, schedule: Q01DX009 (ip), vehicle: saline) was 239 % of control and the T/C (dose: 12.5 mg/kg/injection, schedule: Q01DX009 (ip), vehicle: saline) was 228 % of control and 231 % of control. For the same molecule, the T/C (dose: 16.0 mg/kg/injection, schedule: Q01DX001 (ip), vehicle: saline) was 107 % of control and 113 % of control, the T/C (dose: 25.0 mg/kg/injection, schedule: Q01DX009 (ip), vehicle: saline) was 160 % of control and 220 % of control and 275 % of control and the T/C (dose: 32.0 mg/kg/injection, schedule: Q01DX001 (ip), vehicle: saline) was 115 % of control and 123 % of control.
`C[C@@](O)(/C=C/[C@H]1CC=CC(=O)O1)[C@@H](C[C@@H](O)\C=C/C=C\C=C\CO)OP(=O)(O)O` was tested, and the T/C (dose: 0.78 mg/kg/injection, schedule: Q01DX009 (ip), vehicle: other) was 104 % of control, the T/C (dose: 1.56 mg/kg/injection, schedule: Q01DX009 (ip), vehicle: other) was 116 % of control and the T/C (dose: 3.13 mg/kg/injection, schedule: Q01DX009 (ip), vehicle: other) was 157 % of control. The T/C (dose: 6.25 mg/kg/injection, schedule: Q01DX009 (ip), vehicle: other) was 197 % of control.
For `Nc1cc(=O)[nH][nH]1`, the T/C (dose: 108.0 mg/kg/injection, schedule: Q01DX Z (sc), vehicle: saline) was 105 % of control, the T/C (dose: 180.0 mg/kg/injection, schedule: Q01DX Z (sc), vehicle: saline) was 100 % of control and the T/C (dose: 300.0 mg/kg/injection, schedule: Q01DX Z (sc), vehicle: saline) was 100 % of control. The T/C (dose: 500.0 mg/kg/injection, schedule: Q01DX Z (sc), vehicle: saline) was 100 % of control and the T/C (dose: 833.0 mg/kg/injection, schedule: Q01DX Z (sc), vehicle: saline) was 100 % of control.
`CCN(CC)c1ccc(/C=C/c2ccnc3ccccc23)cc1` was tested, and the T/C [7] was 100 % of control, the T/C [8] was 100 % of control and the T/C [9] was 100 % of control. For the same molecule, the T/C [10] was 100 % of control, the T/C [11] was 100 % of control and the T/C (dose: 500.0 mg/kg/injection, schedule: Q01DX Z (sc), vehicle: water) was 100 % of control.
